Read-outs that look alike come from different tables or passages of the source.
How the values were obtained:
[1] = Acute toxicity test (oral); details: mouse, in vivo, male mice, mortality after 72 hours
Method: For an acute toxicity test, ten male mice with body weights of 22 to 25 g were used as one group, and a compound of the present invention was orally administered at a dose corresponding to the body weight. From the mortality after 72 hours, LD50 was calculated by an area method.

Potassium channel = target: T1, Potassium channel (Rattus norvegicus, UniProt Q63563); test: Potassium channel activating action: relaxation of KCl-contracted rat aorta spiral specimen; details: for inhibition at 10 µM: 10^-5 mol; for inhibition at 1 µM: 10^-6 mol; for inhibition at 0.1 µM: 10^-7 mol
T1 construct: was extracted and formed into a spiral specimen; from tissue; host or cells: aorta of male Wistar rat (spiral strip)
Method: The aorta of a male Wister rat having a body weight of about 240 g was extracted and formed into a spiral specimen, which was suspended under a load of 0.5 g in a Krebs.Henselate solution (37° C.) saturated with a gas mixture of 95% oxygen+5% carbon dioxide. Then, 20 mM or 60 mM potassium chloride was added thereto, and the contraction reaction was measured by means of an isometric transducer (manufactured by Nippon Koden K.K.). When the contraction reaction by potassium chloride reached the maximum, a compound of the present invention was cumulatively added, whereupon the relaxation reaction was measured. The relaxation reaction due to the drug was determined as a relaxation rate relative to the maximum contraction by potassium chloride.

[2] = system: spontaneously hypertensive rat (SHR); test: Blood pressure lowering activity in spontaneously hypertensive rats (oral); type: in vivo
Method: A male spontaneously hypertensive rat (SHR) of 20 weeks old was put in a cage and heated in a heating box at 45° C. for 5 minutes. SHR heated for 5 minutes was fixed to a measuring board, and a cuff for pressurizing and for blood pressure measurement was attached to the tail. As the pressurizing started, the heart rate was measured. After the rat became quiet, the maximum blood pressure was measured.
On the other hand, a compound of the present invention was dissolved or suspended in a 0.5% methyl cellulose solution and orally administered. Then, the blood pressure was measured upon expiration of 1 hour, 3 hours and 6 hours after the administration. [formula]

[3] = 20 mM KCl, read-out: Relaxation rate (%) in 20 mM KCl
[4] = 60 mM KCl, read-out: Relaxation rate (%) in 60 mM KCl

T1 sequence (Q63563 1-1545 isoform Q63563-2): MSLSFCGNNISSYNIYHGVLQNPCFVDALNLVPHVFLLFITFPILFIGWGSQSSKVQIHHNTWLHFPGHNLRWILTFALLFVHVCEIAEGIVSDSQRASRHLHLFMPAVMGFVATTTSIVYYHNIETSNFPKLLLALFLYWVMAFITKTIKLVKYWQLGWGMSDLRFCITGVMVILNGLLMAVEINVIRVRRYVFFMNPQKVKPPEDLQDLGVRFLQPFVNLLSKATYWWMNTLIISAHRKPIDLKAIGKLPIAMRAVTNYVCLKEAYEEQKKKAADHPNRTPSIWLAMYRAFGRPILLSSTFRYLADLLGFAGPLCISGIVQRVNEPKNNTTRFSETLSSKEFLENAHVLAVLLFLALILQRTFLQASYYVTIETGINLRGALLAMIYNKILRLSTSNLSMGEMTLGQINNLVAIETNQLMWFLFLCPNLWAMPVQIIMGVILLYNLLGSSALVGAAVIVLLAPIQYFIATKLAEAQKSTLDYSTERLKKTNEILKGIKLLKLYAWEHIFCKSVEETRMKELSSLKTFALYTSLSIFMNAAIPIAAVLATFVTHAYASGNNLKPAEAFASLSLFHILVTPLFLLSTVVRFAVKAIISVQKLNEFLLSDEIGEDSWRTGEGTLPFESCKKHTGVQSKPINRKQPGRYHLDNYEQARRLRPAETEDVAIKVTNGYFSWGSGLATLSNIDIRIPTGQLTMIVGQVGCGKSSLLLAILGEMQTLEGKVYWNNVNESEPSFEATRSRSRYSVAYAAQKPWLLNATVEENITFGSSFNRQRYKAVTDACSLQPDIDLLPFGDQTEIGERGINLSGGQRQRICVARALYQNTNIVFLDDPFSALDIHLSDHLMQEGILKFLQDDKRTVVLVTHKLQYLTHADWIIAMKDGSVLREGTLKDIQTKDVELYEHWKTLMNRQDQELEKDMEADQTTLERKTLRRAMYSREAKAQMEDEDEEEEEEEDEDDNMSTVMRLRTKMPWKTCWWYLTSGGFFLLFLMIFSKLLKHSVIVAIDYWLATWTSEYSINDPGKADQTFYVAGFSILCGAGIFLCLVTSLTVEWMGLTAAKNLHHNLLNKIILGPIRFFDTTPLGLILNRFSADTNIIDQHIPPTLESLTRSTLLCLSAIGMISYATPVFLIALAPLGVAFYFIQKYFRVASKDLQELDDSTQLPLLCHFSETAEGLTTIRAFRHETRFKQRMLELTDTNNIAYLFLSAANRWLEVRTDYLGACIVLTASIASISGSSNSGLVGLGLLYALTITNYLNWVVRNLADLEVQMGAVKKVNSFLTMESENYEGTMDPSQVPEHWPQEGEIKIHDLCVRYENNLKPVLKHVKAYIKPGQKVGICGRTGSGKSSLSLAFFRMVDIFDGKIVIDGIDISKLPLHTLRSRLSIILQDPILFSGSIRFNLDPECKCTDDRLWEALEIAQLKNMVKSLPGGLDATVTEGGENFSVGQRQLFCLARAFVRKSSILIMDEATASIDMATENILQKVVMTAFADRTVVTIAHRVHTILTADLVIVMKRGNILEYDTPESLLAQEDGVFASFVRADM
T1 sequence (Q63664 whole entry partner): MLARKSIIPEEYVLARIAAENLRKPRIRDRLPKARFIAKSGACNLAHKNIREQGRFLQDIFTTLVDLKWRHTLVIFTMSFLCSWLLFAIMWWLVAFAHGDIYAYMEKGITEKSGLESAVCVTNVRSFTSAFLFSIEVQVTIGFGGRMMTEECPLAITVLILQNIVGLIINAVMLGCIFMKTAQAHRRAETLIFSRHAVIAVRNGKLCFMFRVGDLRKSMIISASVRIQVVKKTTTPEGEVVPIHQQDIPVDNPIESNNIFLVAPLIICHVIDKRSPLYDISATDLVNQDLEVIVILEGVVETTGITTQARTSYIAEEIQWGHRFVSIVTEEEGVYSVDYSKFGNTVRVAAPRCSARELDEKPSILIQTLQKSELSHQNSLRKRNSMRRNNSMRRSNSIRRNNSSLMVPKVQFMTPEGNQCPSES

SMILES | LD50 at 72 h [1] [mg/kg] | inhibition at 10 µM (Potassium channel; [3]) [%] | inhibition at 1 µM (Potassium channel; [3]) [%] | inhibition at 0.1 µM (Potassium channel; [3]) [%] | inhibition at 0.01 µM (Potassium channel; [3]) [%] | inhibition at 10 µM (Potassium channel; [4]) [%] | inhibition at 1 µM (Potassium channel; [4]) [%] | inhibition at 0.1 µM (Potassium channel; [4]) [%] | inhibition at 0.01 µM (Potassium channel; [4]) [%] | Change (%) from the value before administration ([2]; 0.1 mg/kg, 1 hr later) [%] | Change (%) from the value before administration ([2]; 0.1 mg/kg, 3 hrs later) [%] | Change (%) from the value before administration ([2]; 0.1 mg/kg, 6 hrs later) [%] | Change (%) from the value before administration ([2]; 0.3 mg/kg, 1 hr later) [%] | Change (%) from the value before administration ([2]; 0.3 mg/kg, 3 hrs later) [%] | Change (%) from the value before administration ([2]; 3 mg/kg, 1 hr later) [%] | Change (%) from the value before administration ([2]; 3 mg/kg, 3 hrs later) [%] | Change (%) from the value before administration ([2]; 3 mg/kg, 6 hrs later) [%] | Change (%) from the value before administration ([2]; 10 mg/kg, 1 hr later) [%] | Change (%) from the value before administration ([2]; 10 mg/kg, 3 hrs later) [%] | Change (%) from the value before administration ([2]; 10 mg/kg, 6 hrs later) [%] | other results
CC(=NC#N)N[C@@H]1c2cc(C#N)ccc2OC(C)(C)[C@H]1O (relative stereo) [Example 2, 6-cyano-3,4-dihydro-2,2-dimethyl-trans-4-[(N-cyano-acetimidoyl)amino]-2H-benzo[b]pyran-3-ol] | ≥ 2000 | 100 | 95.6 | 30.6 | 6.8 | 5.6 | 1 | 0 | 0 | 10 | 5 | 0 | 26 | 17 | 60 | 56 | 58 | 64 | 61 | 61 | Change (%) from the value before administration ([2]; 0.3 mg/kg, 6 hrs later): 12%; Change (%) from the value before administration ([2]; 1 mg/kg, 1 hr later): 42%; Change (%) from the value before administration ([2]; 1 mg/kg, 3 hrs later): 45%; Change (%) from the value before administration ([2]; 1 mg/kg, 6 hrs later): 26%
CC(=NC#N)NC1=CC(C)(C)Oc2ccc(C#N)cc21 [Example 34, 6-cyano-2,2-dimethyl-4-[(N-cyano-acetimidoyl)amino]-2H-benzo[b]pyran] | ≥ 2000 | 100 | 100 | 94.3 | 28.7 | 21.8 | 13.2 | 4.5 | 0 | 12 | 5 | 0 | 41 | 45 | 65 | 63 | 63 | 64 | 64 | 65 | Change (%) from the value before administration ([2]; 0.3 mg/kg, 6 hrs later): 23%; Change (%) from the value before administration ([2]; 1 mg/kg, 1 hr later): 62%; Change (%) from the value before administration ([2]; 1 mg/kg, 3 hrs later): 60%; Change (%) from the value before administration ([2]; 1 mg/kg, 6 hrs later): 57%
COC(=O)C1=C(C)NC(C)=C(C(=O)OCCN(C)Cc2ccccc2)C1c1cccc([N+](=O)[O-])c1 (stereo not drawn) [Nicardipin, reference compound] | – | – | – | – | – | – | – | – | – | – | – | – | – | – | 20 | 8 | 0 | 40 | 9 | 7 | –
